Data taken from PMC5584980, “Deciphering HLA-I motifs across HLA peptidomes improves neo-antigen predictions and identifies allostery regulating HLA specificity” (PLoS Computational Biology, 2017).

System: HLA-B14:02 wt
Assay: Binding stability assay, refolded HLA-I/peptide complex, ELISA
Parameters: species or system human
Procedure: W97R mutation was introduced into HLA-B14:02 wt by overlap extension PCR and confirmed by DNA sequencing. BL21(DE3)pLys bacterial cells were used to produce HLA-B14:02 wt and W97R as inclusion bodies. Four peptides with histidine or arginine at P2 (A[H/R]TKPRPAL, G[H/R]YDRSKSL, A[H/R]FAKSISL, H[H/R]FEKAVTL) were synthesized at the Peptide Facility (UNIL, Lausanne) with free N and C-termini (1mg of each peptide, > 80% purity). Peptides with histidine at P2 come from our HLA peptidomics data and were assigned to HLA-B15:18 by our mixture model algorithm. Based on our analysis of HLA sequence and structure, peptides with histidine at P2 are predicted to interact with HLA-B14:02 W97R, while peptides with arginine at P2 are predicted to bind better HLA-B14:02 wt.
Synthetic peptides were incubated separately with denaturated […] mutant refolded by dilution in the presence of biotinylated beta-2 microglobulin proteins at temperature T = 4°C for 48 hours. […] Negative controls consist of absence of peptides. koff were determined by fitting exponential curves to the light intensity values obtained by ELISA at different time points. […] For two peptides showing exceptionally high binding stability, only lower bounds on half-lives could be determined (dashed lines in Fig 5D).

For “AHTKPRPAL [synthetic HLA-B15:18 ligand from HLA peptidomics data, histidine at P2, free N and C-termini]”, the “binding of the peptide” value was “fully abolished”.
